{"source": "PubChem BioAssay AID1259409", "about": "(Chemical Carcinogenesis Research Information System (CCRIS), 2018)", "origin": "cited, not measured here", "tested_on": "rodent chemically induced tumor inhibition, incidence and multiplicity", "experiment": "CCRIS tumor inhibitor studies", "conditions": "Carcinogen: 7,12-DIMETHYLBENZ[A]ANTHRACENE, 57-97-6, Route [Inhibitor]: SUBCUTANEOUS, Promoter: NONE USED", "data": [{"smiles": "CC(C)C[C@H]1C(=O)N2CCC[C@H]2[C@]2(O)O[C@](NC(=O)[C@@H]3C=C4c5cccc6[nH]c(Br)c(c56)C[C@H]4N(C)C3)(C(C)C)C(=O)N12", "values": [{"measurement": "tumour outcome (control, treated, inhibition, significance)", "setting": "Dose [Inhibitor]: 0.1 MG 1/D FOR 81 D BEGINNING 30 D PRIOR TO FIRST CARCINOGEN DOSE TO 30 D POST LAST CARCINOGEN DOSE (STUDY DURATION: 31, Species: MOUSE, Strain/Sex: BALB/FEMALE, Target Tissue: Type of Lesion: MAMMARY GLAND: CARCINOMA, Dose [Carcinogen]: 1 MG IN SESAME OIL 1/WK FOR 4 WK", "value": "8%, 8%, 0%, not significant"}, {"measurement": "tumour outcome (control, treated, inhibition, significance)", "setting": "Dose [Inhibitor]: 0.1 MG/30 G BW FOR 81 D BEGINNING 30 D POST LAST CARCINOGEN DOSE (STUDY DURATION: 27 WK), Species: MOUSE, Strain/Sex: BALB/FEMALE, Target Tissue: Type of Lesion: MAMMARY GLAND: CARCINOMA, Dose [Carcinogen]: 1 MG IN SESAME OIL 1/WK FOR 4 WK", "value": "7%, 8%, -14%, not significant"}, {"measurement": "tumour outcome (control, treated, inhibition, significance)", "setting": "Dose [Inhibitor]: 0.4 MG/100 G BW 1/D FOR 50 D BEGINNING 30 D POST LAST CARCINOGEN DOSE (90 D TO 140 D OF AGE) (STUDY DURATION: 25 WK), Species: RAT, Strain/Sex: LEWIS/FEMALE, Target Tissue: Type of Lesion: MAMMARY GLAND: CARCINOMA, Dose [Carcinogen]: 10 MG IN SESAME OIL ONCE AT 56 D OF AGE AND ONCE AT 63 D OF AGE", "value": "94%, 56%, 40%, p<0.005"}, {"measurement": "tumour outcome (control, treated, inhibition, significance)", "setting": "Dose [Inhibitor]: 0.4 MG/100 G BW 1/D FOR 61 D BEGINNING 27 D PRIOR TO FIRST CARCINOGEN DOSE TO 27 D POST LAST CARCINOGEN DOSE (29 TO 90 D, Species: RAT, Strain/Sex: LEWIS/FEMALE, Target Tissue: Type of Lesion: MAMMARY GLAND: CARCINOMA, Dose [Carcinogen]: 10 MG IN SESAME OIL ONCE AT 56 D OF AGE AND ONCE AT 63 D OF AGE", "value": "68%, 60%, 12%, not significant"}, {"measurement": "tumour outcome (control, treated, inhibition, significance)", "setting": "Dose [Inhibitor]: 0.4 MG/100 G BW 4/WK FOR 20 WK BEGINNING 12 D PRIOR TO FIRST CARCINOGEN DOSE (STUDY DURATION: 152 D), Species: RAT, Strain/Sex: LONG-EVANS/FEMALE, Target Tissue: Type of Lesion: HEMATOPOIETIC SYSTEM: LEUKEMIA (UNDIFFERENTIATED CELL), Dose [Carcinogen]: 10 MG IN SESAME OIL 1/2 WK FOR 12 WK (6 TOTAL DOSES)", "value": "13/40 (33%), 15/41 (36%), -9%, not significant"}, {"measurement": "tumour outcome (control, treated, inhibition, significance)", "setting": "Dose [Inhibitor]: 0.4 MG/100 G BW 4/WK FOR 35 WK BEGINNING 12 D PRIOR TO FIRST CARCINOGEN DOSE (STUDY DURATION: 257 D), Species: RAT, Strain/Sex: LONG-EVANS/MALE, Target Tissue: Type of Lesion: HEMATOPOIETIC SYSTEM: LEUKEMIA (UNDIFFERENTIATED CELL), Dose [Carcinogen]: 10 MG IN SESAME OIL 1/2 WK FOR 12 WK (6 TOTAL DOSES)", "value": "10/38 (26%), 8/38 (21%), 19%, not significant"}, {"measurement": "tumour outcome (control, treated, inhibition, significance)", "setting": "Dose [Inhibitor]: 0.4 MG/D FROM 26 TO 93 D OF AGE BEGINNING 30 D PRIOR TO FIRST CARCINOGEN DOSE (STUDY DURATION: 9 MO AFTER LAST DMBA TREA, Species: RAT, Strain/Sex: LEWIS/FEMALE, Target Tissue: Type of Lesion: MAMMARY GLAND: CARCINOMA, Dose [Carcinogen]: 10 MG TWICE ONCE AT 56 D AND ONCE AT 63 D OF AGE", "value": "70%, 62%, 11%, not significant"}, {"measurement": "tumour outcome (control, treated, inhibition, significance)", "setting": "Dose [Inhibitor]: 0.4 MG/D FROM 30 TO 90 D OF AGE BEGINNING 30 D PRIOR TO CARCINOGEN DOSE (STUDY DURATION: 6 MO AFTER DMBA TREATMENT), Species: RAT, Strain/Sex: SPRAGUE-DAWLEY/FEMALE, Target Tissue: Type of Lesion: MAMMARY GLAND: CARCINOMA, Dose [Carcinogen]: 20 MG ONCE AT 60 D OF AGE", "value": "96%, 82%, 15%, p<0.05"}, {"measurement": "tumour outcome (control, treated, inhibition, significance)", "setting": "Dose [Inhibitor]: 0.4 MG/D FROM 30 TO 90 D OF AGE BEGINNING 30 D PRIOR TO CARCINOGEN DOSE (STUDY DURATION: 9 MO AFTER AMBA TREATMENT), Species: RAT, Strain/Sex: SPRAGUE-DAWLEY/FEMALE, Target Tissue: Type of Lesion: MAMMARY GLAND: CARCINOMA, Dose [Carcinogen]: 5 MG ONCE AT 60 D OF AGE", "value": "82%, 60%, 27%, p<0.05"}, {"measurement": "tumour outcome (control, treated, inhibition, significance)", "setting": "Dose [Inhibitor]: 0.4 MG/D FROM 30 TO 90 D OF AGE BEGINNING 30 D PRIOR TO CARCINOGEN DOSE (STUDY DURATION: 9 MO AFTER DMBA TREATMENT), Species: RAT, Strain/Sex: SPRAGUE-DAWLEY/FEMALE, Target Tissue: Type of Lesion: MAMMARY GLAND: FIBROADENOMA, Dose [Carcinogen]: 5 MG ONCE AT 60 D OF AGE", "value": "25%, 15%, 40%, not significant"}, {"measurement": "tumour outcome (control, treated, inhibition, significance)", "setting": "Dose [Inhibitor]: 0.4 MG/D FROM 30 TO 90 D OF AGE BEGINNING 30 D PRIOR TO CARCINOGEN DOSE (STUDY DURATION: 9 MO AFTER LAST DMBA TREATMENT), Species: RAT, Strain/Sex: LONG-EVANS/FEMALE, Target Tissue: Type of Lesion: MAMMARY GLAND: CARCINOMA, Dose [Carcinogen]: 20 MG ONCE AT 60 D OF AGE", "value": "25%, 22%, 12%, not significant"}, {"measurement": "tumour outcome (control, treated, inhibition, significance)", "setting": "Dose [Inhibitor]: 0.4 MG/D FROM 30 TO 90 D OF AGE BEGINNING 30 D PRIOR TO CARCINOGEN DOSE (STUDY DURATION: 9 MO AFTER LAST DMBA TREATMENT), Species: RAT, Strain/Sex: LONG-EVANS/FEMALE, Target Tissue: Type of Lesion: MAMMARY GLAND: FIBROADENOMA, Dose [Carcinogen]: 20 MG ONCE AT 60 D OF AGE", "value": "12%, 3%, 75%, not significant"}, {"measurement": "tumour outcome (control, treated, inhibition, significance)", "setting": "Dose [Inhibitor]: 0.4 MG/D FROM 30 TO 90 D OF AGE BEGINNING 30 D PRIOR TO CARCINOGEN DOSE (STUDY DURATION: 12 MO AFTER DMBA TREATMENT), Species: RAT, Strain/Sex: SPRAGUE-DAWLEY/FEMALE, Target Tissue: Type of Lesion: MAMMARY GLAND: CARCINOMA, Dose [Carcinogen]: 1.25 MG ONCE AT 60 D OF AGE", "value": "10%, 10%, 0%, not significant"}, {"measurement": "tumour outcome (control, treated, inhibition, significance)", "setting": "Dose [Inhibitor]: 0.4 MG/D FROM 30 TO 90 D OF AGE BEGINNING 30 D PRIOR TO CARCINOGEN DOSE (STUDY DURATION: 12 MO AFTER DMBA TREATMENT), Species: RAT, Strain/Sex: SPRAGUE-DAWLEY/FEMALE, Target Tissue: Type of Lesion: MAMMARY GLAND: FIBROADENOMA, Dose [Carcinogen]: 1.25 MG ONCE AT 60 D OF AGE", "value": "90%, 80%, 11%, p<0.05"}]}]}
